Source: patent US9597431B2, “Compositions and methods for promoting bone formation” (Warsaw Orthopedic, Inc., priority 2008, dated 2017)

What was measured:
[1] = system: unilateral transverse femur fractures mice; conditions: osteoclast inhibitors; cited from earlier work
[2] = system: three millimeter defects in femurs of athymic rats; experiment: Critical defect model in rat femurs, new bone formation by MicroCT; type: in vivo; conditions: two micrograms recombinant RANKL mixed with 150 mg Grafton DBM FLEX vs Grafton DBM FLEX alone, three weeks
Protocol: To test whether recombinant RANKL mixed with DBM may aid bone healing, a critical defect model was used in rat femurs. Three millimeter defects were created in femurs of athymic rats. The rats were divided into two groups, the bone defects from one group were implanted with 150 mg of Grafton® DBM FLEX (Osteotech, Eatontown, N.J.), the second group received Grafton® DBM FLEX mixed with two micrograms of recombinant RANKL. At three weeks, the rat femur defects were evaluated by MicroCT. […] Data was analyzed using paired student-t-test.

NCCCC(O)(P(=O)(O)O)P(=O)(O)O [alendronate]
removal of cartilage and remodeling of the fracture callus [1]: delayed

denosumab: osteoclast inhibitor
removal of cartilage and remodeling of the fracture callus [1]: delayed

B1: RANKL: recombinant receptor activator for nuclear factor κ B ligand, mixed with Grafton DBM FLEX demineralized bone matrix implant (protein, UniProt O14788 140-317, looked up)
Tumor necrosis factor ligand …: IRAEKAMVDGSWLDLAKRSKLEAQPFAHLTINATDIPSGSHKVSLSSWYHDRGWAKISNMTFSNGKLIVNQDGFYYLYANICFRHHETSGDLATEYLQLMVYVTKTSIKIPSSHTLMKGGSTKYWSGNSEFHFYSINVGGFFKLRSGEEISIEVSNPSLLDPDQDATYFGAFKVRDID
new bone formation compared to control group [2]: significantly (p<0.05) higher
